Source: ChEMBL document CHEMBL5321229, “Conformationally locked sugar derivatives and analogues as potential neuraminidase inhibitors” (Eur J Med Chem, 2023)

Biological target: Neuraminidase (Influenza A virus (A/Memphis/1/1971(H3N2)), UniProt P03471, E119V)
Experiment: Inhibition of influenza A virus H3N2 (A/Moscow/10/99) harboring E119V mutant neuraminidase using MUNANA as substrate preincubated for 30 mins followed by substrate addition by fluorescence-based assay

In the case of CCC(CC)O[C@@H]1C=C(C(=O)O)C[C@H](n2nncc2-c2cccc(N)c2)[C@H]1NC(C)=O, the IC50 is reported as 790 nM.
